Measurements from ChEMBL document CHEMBL1201862, “PubChem BioAssay data set” (2004).
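The compound was tested at five concentrations on cells cultured in 96-well plates, with a 48-hour exposure period. GI50: concentration for 50% inhibition of growth.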 Calls of active or inactive are those of the source. No stated cut-off is given here; in the data, active = GI50 up to about 1.1 µM and inactive = higher.

Key:
Experiment in all cases: NCI anticancer screen, dose series, 48 h
NCI-H460 = system: NCI-H460
SR = system: SR
SK-MEL-5 = system: SK-MEL-5
A549 = system: A549
NCI-H226 = system: NCI-H226
IGROV-1 = system: IGROV-1
UACC-62 = system: UACC-62
786-0 = system: 786-0
SNB-19 = system: SNB-19
HT-29 = system: HT-29
KM12 = system: KM12
LOX IMVI = system: LOX IMVI
OVCAR-4 = system: OVCAR-4
SW-620 = system: SW-620

Measured: GI50

O=C(O)C12C3CCCC1C2CC3 (stereo not given)
inactive: NCI-H460 > 100 µM | SR > 100 µM | SK-MEL-5 > 100 µM | A549 > 100 µM | NCI-H226 > 100 µM | IGROV-1 > 100 µM | UACC-62 > 100 µM | 786-0 > 100 µM | SNB-19 > 100 µM | HT-29 > 100 µM | KM12 > 100 µM | LOX IMVI > 100 µM

COc1ccc(C2=NN(C(C)=O)c3nc4ccccc4nc3O2)cc1
inactive: NCI-H460 32.1 µM | SR > 100 µM | A549 40.6 µM | OVCAR-4 11 µM | IGROV-1 3.33 µM | UACC-62 61.4 µM | 786-0 15.2 µM | SNB-19 27 µM | HT-29 > 100 µM | SW-620 > 100 µM | KM12 > 100 µM

COc1ccc(O)c2c1C(=O)CCCC2=O
inactive: NCI-H460 > 100 µM | SK-MEL-5 > 100 µM | A549 > 100 µM | OVCAR-4 > 100 µM | IGROV-1 > 100 µM | UACC-62 > 100 µM | 786-0 > 100 µM | SNB-19 > 100 µM | HT-29 > 100 µM | SW-620 > 100 µM | KM12 > 100 µM | LOX IMVI > 100 µM

CCN(CC)c1ccc(/N=C2\C=C(Cl)C(=O)c3ncccc32)c(C)c1
inactive: NCI-H460 6.56 µM | SK-MEL-5 3.18 µM | A549 9.71 µM | OVCAR-4 5.27 µM | IGROV-1 11.1 µM | UACC-62 3.8 µM | 786-0 3.08 µM | SNB-19 21.3 µM | HT-29 15.8 µM | SW-620 4.05 µM | LOX IMVI 5.15 µM

COc1cc(/C=C/C(=O)c2sc(NNC(C)=O)nc2C)ccc1O
inactive: NCI-H460 > 100 µM | SK-MEL-5 > 100 µM | A549 > 100 µM | NCI-H226 > 100 µM | IGROV-1 > 100 µM | UACC-62 > 100 µM | 786-0 > 100 µM | HT-29 > 100 µM | SW-620 > 100 µM | KM12 > 100 µM | LOX IMVI > 100 µM

CCCN(CCC)c1c([N+](=O)[O-])cc(C(=O)N(CC)CC)cc1[N+](=O)[O-]
inactive: NCI-H460 15.9 µM | SR 14.8 µM | SK-MEL-5 13.3 µM | A549 12.3 µM | NCI-H226 23 µM | IGROV-1 32.3 µM | UACC-62 17.7 µM | 786-0 27.5 µM | SNB-19 20 µM | HT-29 22.6 µM | SW-620 28.6 µM | LOX IMVI 16 µM

Nc1nc(Cl)c2ncn(CCCC(c3ccccc3)P(=O)(O)O)c2n1 (stereo not given)
inactive: NCI-H460 > 100 µM | SR > 100 µM | SK-MEL-5 > 100 µM | A549 > 100 µM | IGROV-1 > 100 µM | UACC-62 > 100 µM | 786-0 > 100 µM | SNB-19 > 100 µM | HT-29 > 100 µM | SW-620 > 100 µM | KM12 > 100 µM | LOX IMVI > 100 µM

COCN/C(N)=N/C#N
inactive: NCI-H460 > 100 µM | SR 15.1 µM | SK-MEL-5 > 100 µM | A549 > 100 µM | NCI-H226 > 100 µM | OVCAR-4 > 100 µM | IGROV-1 > 100 µM | UACC-62 > 100 µM | 786-0 80.4 µM | SNB-19 > 100 µM | HT-29 > 100 µM | SW-620 15.7 µM | KM12 > 100 µM

C1=c2ccccc2=C2C(=C(c3ccccc3)C(c3ccccc3)=NN2c2ccccc2)S1
inactive: NCI-H460 > 100 µM | SK-MEL-5 > 100 µM | A549 > 100 µM | NCI-H226 > 100 µM | OVCAR-4 > 100 µM | IGROV-1 > 100 µM | UACC-62 > 100 µM | 786-0 58.6 µM | SNB-19 > 100 µM | HT-29 > 100 µM | SW-620 91.4 µM | KM12 > 100 µM | LOX IMVI > 100 µM

C=CCc1cc(OC)c2c(c1)C(O)CC(c1ccc(OC)c(OC)c1)O2 (stereo not given)
inactive: NCI-H460 > 100 µM | SR > 100 µM | SK-MEL-5 58.3 µM | A549 > 100 µM | NCI-H226 > 100 µM | OVCAR-4 > 100 µM | IGROV-1 > 100 µM | UACC-62 > 100 µM | 786-0 > 100 µM | SNB-19 > 100 µM | HT-29 > 100 µM | SW-620 > 100 µM | KM12 > 100 µM

O=c1c(Sc2c(O)c3ccccc3c3ccccc3c2=O)c(O)c2ccccc2c2ccccc12
inactive: NCI-H460 17.6 µM | SK-MEL-5 29.9 µM | A549 44.6 µM | OVCAR-4 41.8 µM | IGROV-1 47.2 µM | UACC-62 29.2 µM | 786-0 37.2 µM | SNB-19 19.3 µM | HT-29 66.2 µM | SW-620 63.8 µM | KM12 93.1 µM | LOX IMVI 25.1 µM

CCCCC[C@@H]1CCCC2NC(CCCCCO[Si](c3ccccc3)(c3ccccc3)C(C)(C)C)CCC21 (stereo not given in full)
inactive: NCI-H460 16.2 µM | SK-MEL-5 18.4 µM | A549 17.5 µM | NCI-H226 18.7 µM | OVCAR-4 8.67 µM | IGROV-1 16.9 µM | UACC-62 19.5 µM | 786-0 18.1 µM | SNB-19 17.3 µM | HT-29 4.28 µM | SW-620 14.6 µM | KM12 12.5 µM | LOX IMVI 12.2 µM
